Data: ChEMBL document CHEMBL2086307, “Design, synthesis and identification of a new class of triarylmethyl amine compounds as inhibitors of apolipoprotein E production” (2012)
Activity calls are given as the source filed them. The calls are words filed in the database; no cut-off is given here.

System: CCF-STTG1
Assay: Inhibition of apolipoprotein E production in human CCF-STTG1 cells at 10 uM after 24 hrs by ELISA relative to vehicle-treated control
Format: functional
Conditions: for inhibition at 10 µM: CCF-STTG1, 24 h

Work on `c1ccc(C(NCC2CCCCC2)(c2ccccc2)c2ccccc2)cc1` yielded an inhibition at 10 µM of 51%.

`CC(NC(c1ccccc1)(c1ccccc1)c1ccccc1)c1ccccc1` (racemic) was tested, and the inhibition was “Active”.

`CCN(CC)C(c1ccccc1)(c1ccccc1)c1ccccc1` was tested, and the inhibition was “Active”.

With `CC(NC(c1ccccc1)(c1ccccc1)c1ccc2ccccc2c1)c1ccccc1` (racemic) the inhibition was “Active”.

`COc1ccc(C(c2ccccc2)(c2ccccc2)N2CCCC2)cc1` was tested, and the inhibition was “Active”.

In the case of `c1ccc(C(NC2CCCCC2)(c2ccccc2)c2ccc3ccccc3c2)cc1`, the inhibition is reported as “Active”.

`COc1ccc(C(c2ccccc2)(c2ccccc2)N2CCOCC2)cc1` was tested, and the inhibition was “Active”.

With `COc1ccc(C(c2ccccc2)(c2ccccc2)N2CCCCC2)cc1` the inhibition was “Active”.

For `CCN(CC)C(c1ccccc1)(c1ccccc1)c1ccc2ccccc2c1`, the inhibition was “Active”.

In the case of `O=C(c1ccccc1)C(O)c1ccccc1` (stereo unspecified), the inhibition is reported as “Active”.

For `c1ccc(C(c2ccccc2)(c2ccc3ccccc3c2)N2CCCCC2)cc1`, the inhibition was “Active”.

For `COc1ccc(C(c2ccccc2)(c2ccccc2)N(C)C)cc1`, the inhibition was “Active”.

With `CN(C)C(c1ccccc1)(c1ccccc1)c1ccccc1` the inhibition was “Active”.

In the case of `c1ccc(C(c2ccccc2)(c2ccc3ccccc3c2)N2CCCC2)cc1`, the inhibition at 10 µM is reported as 46%.

In the case of `c1ccc(C(c2ccccc2)(c2ccccc2)N2CCCC2)cc1`, the inhibition is reported as “Active”.

Molecule `CCC(C)NC(c1ccccc1)(c1ccccc1)c1ccc2ccccc2c1` (stereo unspecified) has an inhibition at 10 µM of 66%.

For `COc1ccc(C(Nc2ccccc2)(c2ccccc2)c2ccccc2)cc1`, the inhibition was “Active”.

With `CC(C)CNC(c1ccccc1)(c1ccccc1)c1ccc2ccccc2c1` the inhibition at 10 µM was 50%.

With `COc1ccc(C(NCC(C)C)(c2ccccc2)c2ccccc2)cc1` the inhibition was “Active”.

For `CCCCN(CCCC)C(c1ccccc1)(c1ccccc1)c1ccc2ccccc2c1`, the inhibition was “Active”.

In the case of `COc1ccc(C(c2ccccc2)(c2ccccc2)N2CCNCC2)cc1`, the inhibition is reported as “Active”.

For `CCC(C)NC(c1ccccc1)(c1ccccc1)c1ccccc1` (stereo unspecified), the inhibition was “Active”.

With `c1ccc(C(NC2CCCCC2)(c2ccccc2)c2ccccc2)cc1` the inhibition was “Active”.

For `c1ccc(C(c2ccccc2)(c2ccccc2)N2CCNCC2)cc1`, the inhibition was “Active”.

In the case of `c1ccc(CN(Cc2ccccc2)C(c2ccccc2)(c2ccccc2)c2ccccc2)cc1`, the inhibition is reported as “Active”.

In the case of `COc1ccc(C(NC2CCCCC2)(c2ccccc2)c2ccccc2)cc1`, the inhibition is reported as “Active”.

With `c1ccc(C(c2ccccc2)(c2ccccc2)N2CCCCC2)cc1` the inhibition was “Active”.

In the case of `CN(C)C(c1ccccc1)(c1ccccc1)c1ccc2ccccc2c1`, the inhibition is reported as “Active”.

`CCCCN(CCCC)C(c1ccccc1)(c1ccccc1)c1ccc(OC)cc1` was tested, and the inhibition was “Active”.

`CCC(C)NC(c1ccccc1)(c1ccccc1)c1ccc(OC)cc1` (stereo unspecified) was tested, and the inhibition was “Active”.

With `O=C(c1ccccc1)c1ccc(O)cc1` the inhibition was “Active”.

With `c1ccc(CNC(c2ccccc2)(c2ccccc2)c2ccccc2)cc1` the inhibition was “Active”.

In the case of `c1ccc(NC(c2ccccc2)(c2ccccc2)c2ccccc2)cc1`, the inhibition is reported as “Active”.

For `O=C(c1ccccc1)c1ccc(OCc2ccccc2)cc1`, the inhibition was “Active”.

In the case of `CC(C)CNC(c1ccccc1)(c1ccccc1)c1ccccc1`, the inhibition is reported as “Active”.

For `COc1ccc(C(NCc2ccccc2)(c2ccccc2)c2ccccc2)cc1`, the inhibition was “Active”.

`CCCCN(CCCC)C(c1ccccc1)(c1ccccc1)c1ccccc1` was tested, and the inhibition was “Active”.

With `c1ccc(C(c2ccccc2)(c2ccccc2)N2CCOCC2)cc1` the inhibition was “Active”.

In the case of `O=C(c1ccccc1)c1ccccc1`, the inhibition is reported as “Active”.

`CCN(CC)C(c1ccccc1)(c1ccccc1)c1ccc(OC)cc1` was tested, and the inhibition was “Active”.

`c1ccc(C(c2ccccc2)(c2ccc3ccccc3c2)N2CCOCC2)cc1` was tested, and the inhibition at 10 µM was 49%.
